Experimental data as given in US20140011853A1, “SUBSTITUTED 3-(BIPHENYL-3-YL)-8,8-DIFLUORO-4-HYDROXY-1-AZASPIRO[4.5]DEC-3-EN-2-ONES FOR THERAPY” (BAYER INTELLECTUAL PROPERTY GMBH, priority 2011, published 2014).
Where “and” joins values, the source holds several entries; their conditions need not be identical. Identical values can stand only once.

Assays:
human ACC1 [1] = target: T1, human ACC1 (Homo sapiens, UniProt Q13085); test: Human ACC1 enzyme assay (ADP-Glo); format: biochemical; conditions: individual measurements; read-out: ACC 1 IC50
T1 construct: FLAG (C); made in house; host or cells: baculovirus-infected insect cells (Hi5)

human ACC1 [2] = test: Human ACC1 enzyme assay (ADP-Glo); format: biochemical; conditions: for Ratio of IC50s ACC2/ACC1 (respective measurement): pairwise, same dilution series
KM12 = test: Tumour cell proliferation, CellTiter-Glo, 96-hour incubation, KM12; format: cell-based; conditions: Homo sapiens, KM12, 96 h; read-out: KM12 IC50
Method: (§1) In accordance with the invention, the substances were tested in cell-based assays for the ability of the substances of inhibiting tumour cell proliferation after a 96-hour incubation with the substance. Cell viability was tested using the CellTiter-Glo® luminescent cell viability assay (Promega). The cells were sown at a density of 2000-5000 cells/well (depending on the cell line) in 100 μl growth medium on 96-well microtiter plates. For each cell line examined, cells were sown on a separate plate to determine the luminescence at t=0 hours and t=96 hours. After overnight incubation at 37° C., the luminescence values for the t=0 samples were determined. The dose plates for the t=96 hours points in time were treated with substances diluted with growth medium. The cells were then incubated at 37° C. for 96 hours, and the luminescence values for the t=96 hours samples were then determined. For data analysis, the t=0 values were subtracted from the t=96 hours values for treated and untreated samples. The differences in luminescence in percent between substance-treated samples and control values were used to determine the growth inhibition in percent.
(§2) The substances were tested in the following cell lines which represent the stated indications in an exemplary manner: […]

PC3 = test: Tumour cell proliferation, CellTiter-Glo, 96-hour incubation, PC3; format: cell-based; conditions: Homo sapiens, PC-3, 96 h; read-out: PC3 IC50
Method: as §1, §2

H460 = test: Tumour cell proliferation, CellTiter-Glo, 96-hour incubation, H460; format: cell-based; conditions: Homo sapiens, NCI-H460, 96 h; read-out: H460 IC50
Method: as §1, §2

MCF7 = test: Tumour cell proliferation, CellTiter-Glo, 96-hour incubation, MCF7; format: cell-based; conditions: Homo sapiens, MCF7, 96 h; read-out: MCF7 IC50
Method: as §1, §2

Spodoptera frugiperda = Spodoptera frugiperda test (SPODFR spray treatment); format: in vivo; conditions: 500 g/ha, after 7 days
Myzus persicae = test: Myzus test (MYZUPE spray treatment); format: in vivo; conditions: for pest or weed control at 500 g/ha / effect (kill of aphids): after 6 days, 500 g/ha; for pest or weed control at 500 g/ha: read-out: effect (kill of aphids)
From the text: Disks of Chinese cabbage (Brassica pekinensis) infested by all stages of the green peach aphid (Myzus persicae) are sprayed with an active compound formulation of the desired concentration.

Tetranychus urticae = test: Tetranychus test, OP-resistant (TETRUR spray treatment); format: in vivo; conditions: for pest or weed control at 100 g/ha / effect (kill of spider mites): after 6 days; for pest or weed control at 100 g/ha: read-out: effect (kill of spider mites)
human ACC2 = human ACC2 (Homo sapiens, UniProt O00763); test: Human ACC2 enzyme assay (ADP-Glo); conditions: ACC 2 IC50, individual measurements
Sequence of human ACC2 (O00763 27-2458 limits assumed): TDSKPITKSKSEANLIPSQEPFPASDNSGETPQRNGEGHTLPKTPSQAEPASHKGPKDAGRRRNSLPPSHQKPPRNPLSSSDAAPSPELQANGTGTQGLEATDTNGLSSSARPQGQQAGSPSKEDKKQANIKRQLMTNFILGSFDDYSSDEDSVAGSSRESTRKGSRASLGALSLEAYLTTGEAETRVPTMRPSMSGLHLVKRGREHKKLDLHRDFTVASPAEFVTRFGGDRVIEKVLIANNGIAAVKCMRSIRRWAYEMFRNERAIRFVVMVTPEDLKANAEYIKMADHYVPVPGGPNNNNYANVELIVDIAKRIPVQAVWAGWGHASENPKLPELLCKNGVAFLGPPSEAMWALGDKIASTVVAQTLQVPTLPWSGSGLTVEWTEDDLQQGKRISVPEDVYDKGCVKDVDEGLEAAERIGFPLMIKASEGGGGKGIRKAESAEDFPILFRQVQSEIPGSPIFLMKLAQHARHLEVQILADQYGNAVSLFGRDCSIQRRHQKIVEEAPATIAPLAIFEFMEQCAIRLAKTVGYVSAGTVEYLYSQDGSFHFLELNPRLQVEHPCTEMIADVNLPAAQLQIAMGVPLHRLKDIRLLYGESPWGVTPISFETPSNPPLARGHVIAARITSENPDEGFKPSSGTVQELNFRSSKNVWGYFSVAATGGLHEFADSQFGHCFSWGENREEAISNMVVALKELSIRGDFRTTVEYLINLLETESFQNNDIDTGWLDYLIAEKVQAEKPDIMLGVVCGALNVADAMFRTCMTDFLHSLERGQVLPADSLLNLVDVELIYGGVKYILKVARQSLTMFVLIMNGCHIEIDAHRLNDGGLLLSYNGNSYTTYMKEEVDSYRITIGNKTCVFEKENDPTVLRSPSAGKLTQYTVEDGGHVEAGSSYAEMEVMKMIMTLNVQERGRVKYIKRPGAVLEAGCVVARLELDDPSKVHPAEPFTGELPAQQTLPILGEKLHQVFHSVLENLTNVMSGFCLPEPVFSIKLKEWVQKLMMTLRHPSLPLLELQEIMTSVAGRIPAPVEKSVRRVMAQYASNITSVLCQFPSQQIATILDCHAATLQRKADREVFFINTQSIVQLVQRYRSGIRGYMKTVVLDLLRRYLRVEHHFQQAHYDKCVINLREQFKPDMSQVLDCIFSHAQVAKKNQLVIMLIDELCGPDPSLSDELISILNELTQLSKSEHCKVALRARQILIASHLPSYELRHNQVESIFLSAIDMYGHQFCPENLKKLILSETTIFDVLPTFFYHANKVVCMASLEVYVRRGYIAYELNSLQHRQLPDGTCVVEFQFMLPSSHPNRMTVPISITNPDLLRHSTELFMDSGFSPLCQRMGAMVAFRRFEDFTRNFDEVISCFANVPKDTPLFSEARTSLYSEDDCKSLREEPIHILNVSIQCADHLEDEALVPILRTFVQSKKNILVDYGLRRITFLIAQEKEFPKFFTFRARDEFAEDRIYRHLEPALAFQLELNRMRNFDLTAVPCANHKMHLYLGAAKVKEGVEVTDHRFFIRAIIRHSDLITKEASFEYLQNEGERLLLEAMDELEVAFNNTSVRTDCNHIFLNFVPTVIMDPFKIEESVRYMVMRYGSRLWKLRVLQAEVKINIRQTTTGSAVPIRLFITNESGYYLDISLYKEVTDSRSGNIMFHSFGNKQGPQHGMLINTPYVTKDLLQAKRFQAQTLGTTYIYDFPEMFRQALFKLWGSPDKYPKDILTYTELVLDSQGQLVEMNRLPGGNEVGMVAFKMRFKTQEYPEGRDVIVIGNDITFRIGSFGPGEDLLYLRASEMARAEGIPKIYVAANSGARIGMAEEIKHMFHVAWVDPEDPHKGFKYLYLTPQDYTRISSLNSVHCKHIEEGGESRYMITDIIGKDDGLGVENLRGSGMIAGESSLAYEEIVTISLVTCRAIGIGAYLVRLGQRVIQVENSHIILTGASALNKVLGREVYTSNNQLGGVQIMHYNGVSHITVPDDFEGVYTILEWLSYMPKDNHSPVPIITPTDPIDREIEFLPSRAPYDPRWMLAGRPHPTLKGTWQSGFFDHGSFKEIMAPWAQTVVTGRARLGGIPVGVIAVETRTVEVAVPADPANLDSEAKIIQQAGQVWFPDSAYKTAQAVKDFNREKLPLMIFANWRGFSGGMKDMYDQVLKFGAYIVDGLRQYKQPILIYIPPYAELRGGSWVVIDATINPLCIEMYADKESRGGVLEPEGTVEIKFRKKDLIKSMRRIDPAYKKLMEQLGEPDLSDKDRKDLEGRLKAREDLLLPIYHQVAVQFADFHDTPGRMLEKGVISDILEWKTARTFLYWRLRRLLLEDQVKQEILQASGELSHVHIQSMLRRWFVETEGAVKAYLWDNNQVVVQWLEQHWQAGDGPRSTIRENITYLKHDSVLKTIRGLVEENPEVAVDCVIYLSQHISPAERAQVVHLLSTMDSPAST

Phaedon cochleariae = test: Phaedon test (PHAECO spray treatment); conditions: for effect (kill of beetle larvae): 500 g/ha, after 7 days
[3] = Tetranychus urticae, 144 h, 100 g/ha

SMILES | IC50 (human ACC1 [1]) | Selectivity ACC1 vs. ACC2 (mean of the individual measurements ± standard deviation) (human ACC1 [2]) | IC50 (KM12) [µM] | IC50 (PC3) [µM] | IC50 (H460) [µM] | IC50 (MCF7) [µM] | effect (kill of caterpillars) (Spodoptera frugiperda) [%] | pest or weed control at 500 g/ha (Myzus persicae; Myzus persicae, 144 h) [%] | pest or weed control at 100 g/ha (Tetranychus urticae; [3]) [%] | IC50 (human ACC2) | effect (kill of beetle larvae) (Phaedon cochleariae) [%] | effect (kill of aphids) (Myzus persicae) [%] | effect (kill of spider mites) (Tetranychus urticae; 100 g/ha) [%] | further results
Cc1ccc(-c2ccc(F)cc2)cc1C1=C(O)C2(CCC(F)(F)CC2)NC1=O [Example 1-3, 8,8-Difluoro-3-(4′-fluoro-4-methylbiphenyl-3-yl)-4-hydroxy-1-azaspiro[4.5]dec-3-en-2-one] | 0.166 µM and 0.241 µM | >101.8 ± 19.0 | 0.578 | 0.476 | 0.678 | 0.209 | 100 | 90 | 100 | > 20 µM | 100 | – | – | Ratio of IC50s ACC2/ACC1 (respective measurement) (human ACC1 [2]): >120.8 and >82.8
O=C1NC2(CCC(F)(F)CC2)C(O)=C1c1cc(-c2ccc(Cl)cc2)ccc1Cl [Example 1-4, 3-(4,4′-Dichlorobiphenyl-3-yl)-8,8-difluoro-4-hydroxy-1-azaspiro[4.5]dec-3-en-2-one] | 0.121 µM and 0.091 µM | 39.7 ± 5.7 | 0.319 | 0.231 | 0.481 | 0.086 | 100 | 90 | 90 | 5.48 µM and 3.11 µM | 100 | – | – | Ratio of IC50s ACC2/ACC1 (respective measurement) (human ACC1 [2]): 45.5 and 34.0
Cc1ccc(-c2ccc(F)c(F)c2)cc1C1=C(O)C2(CCC(F)(F)CC2)NC1=O [Example 1-6, 3-(3′,4′-Difluoro-4-methylbiphenyl-3-yl)-8,8-difluoro-4-hydroxy-1-azaspiro[4.5]dec-3-en-2-one] | 0.133 µM and 0.107 µM | 51.9 ± 22.8 | 0.257 | 0.158 | 0.371 | 0.045 | – | 100 | 90 | 3.87 µM and 8.03 µM | 100 | – | – | inhibition at 20 g/ha (Myzus persicae; Myzus persicae, 144 h, 20 g/ha, 6 d, read-out: % activity MYZUPE): 100%; inhibition at 20 g/ha (Tetranychus urticae; Tetranychus urticae, 144 h, 20 g/ha, 6 d, read-out: % activity TETRUR): 90%; melting point: 223 °C; inhibition at 20 g/ha (Phaedon cochleariae; Phaedon cochleariae, 168 h, read-out: % activity PHAECO): 67%
Cc1cc(C)c(C2=C(O)C3(CCC(F)(F)CC3)NC2=O)c(C)c1 [Example I-1-a-1] | – | – | – | – | – | – | 83 | 100 | 100 | – | – | – | – | –
Cc1cc(Br)cc(C)c1C1=C(O)C2(CCC(F)(F)CC2)NC1=O [Example I-1-a-5] | – | – | – | – | – | – | – | – | – | – | 100 | 100 | 100 | –
Cc1cc(Cl)cc(C)c1C1=C(O)C2(CCC(F)(F)CC2)NC1=O [Example I-1-a-7] | – | – | – | – | – | – | – | – | – | – | 100 | 100 | 100 | –
Cc1cc(OCC(F)(F)F)cc(C)c1C1=C(O)C2(CCC(F)(F)CC2)NC1=O [Example I-1-a-8] | – | – | – | – | – | – | – | 100 | 100 | – | 100 | – | – | –
Cc1cc(-c2ccc(Cl)cc2)cc(C)c1C1=C(O)C2(CCC(F)(F)CC2)NC1=O [Example I-1-a-9] | – | – | – | – | – | – | – | 100 | 100 | – | 100 | – | – | –
CCc1cc(C)cc(C)c1C1=C(O)C2(CCC(F)(F)CC2)NC1=O [Example I-1-a-11] | – | – | – | – | – | – | – | – | – | – | – | – | 100 | –
Cc1ccc(-c2ccc(F)cc2)c(C)c1C1=C(O)C2(CC=C(F)CC2)NC1=O (stereo not shown) [Example I-1-a-12] | – | – | – | – | – | – | 100 | – | – | – | 100 | 100 | – | effect (kill of spider mites) (Tetranychus urticae; 500 g/ha): 100%
